Data published in patent publication US7935853B2, “Micronized composition of a 2,4-disubstituted phenol derivative” (priority 2008, dated 2011).
Values joined by “and” are separate entries in the source; they are usually repeats but may differ in a detail not shown here. Equal values may be shown once.

Target: T1, 5-lipoxygenase (Rattus norvegicus, UniProt P12527)
T1 construct: leukotriene B4 formation (LTB4) by 5-lipoxygenase ex-vivo in rat whole blood stimulated with calcium ionophore; from tissue
T1 sequence (P12527 1-673): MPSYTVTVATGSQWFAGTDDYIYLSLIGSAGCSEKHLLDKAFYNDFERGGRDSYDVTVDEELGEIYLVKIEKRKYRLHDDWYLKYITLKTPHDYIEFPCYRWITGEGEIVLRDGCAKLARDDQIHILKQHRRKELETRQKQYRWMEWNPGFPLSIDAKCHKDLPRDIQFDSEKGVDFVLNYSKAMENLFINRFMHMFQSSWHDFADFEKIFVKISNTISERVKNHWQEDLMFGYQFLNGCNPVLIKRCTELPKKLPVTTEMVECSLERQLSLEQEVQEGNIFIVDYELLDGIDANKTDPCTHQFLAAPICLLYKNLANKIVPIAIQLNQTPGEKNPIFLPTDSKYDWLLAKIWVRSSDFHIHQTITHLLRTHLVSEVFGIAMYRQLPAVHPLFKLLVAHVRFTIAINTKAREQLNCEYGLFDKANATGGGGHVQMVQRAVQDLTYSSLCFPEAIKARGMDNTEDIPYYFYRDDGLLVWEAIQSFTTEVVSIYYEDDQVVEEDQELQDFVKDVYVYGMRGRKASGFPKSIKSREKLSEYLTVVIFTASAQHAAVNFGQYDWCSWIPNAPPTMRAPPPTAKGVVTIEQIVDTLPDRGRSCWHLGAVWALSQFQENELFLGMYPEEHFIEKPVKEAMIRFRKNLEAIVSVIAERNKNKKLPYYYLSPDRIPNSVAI
Assay: Inhibitory activity over 5-lipoxygenase ex-vivo in rat whole blood (LTB4 by EIA)
Settings: for LTB4 (ng/ml), group mean / LTB4 (ng/ml), individual samples: blood 1 h after last dose, calcium ionophore 30 μM; for LTB4 (ng/ml), individual samples / LTB4 % inhib., individual samples: individual rats
Description: In the example shown 3 groups of animals (rats) were used, with 6 rats in each group. The groups were;
1 group 1: control (vehicle)
2 group 2: treated with micronized test substance (10 mg/Kg)
3 group 3: treated with non-micronized test substance (10 mg/Kg)
The distribution of animals to each group was done in a randomized manner at the start of the study.
The test and reference substances were administered orally as a suspension in 0.25% carboximethylcellulose in a dosing volume of 4 ml/kg via an oral cannula.
Test substance administration was carried out once every 24 hours (09 h 00 min) for 5 consecutive days. On the 5th day a blood sample was obtained from each animal (1 mL) 1 hour after administration of the test and reference substances. Blood samples were obtained from the posterior (abdominal) vena cava in sterile syringes containing sodium citrate (4%) as an anticoagulant. Each blood sample was divided into two 0.5 ml aliquots (duplicates). A 1 hour time lapse after test substance administration was used before obtaining the blood samples as it was determined in preliminary studies that this is when there is a greater inhibition of leukotriene synthesis by the test substance.
Immediately after collection of the blood samples, the duplicated aliquots were incubated at 37° C. for 10 min. After this time, the aliquots were stimulated with calcium ionophore (30 μM, final concentration) for 30 min at 37° C. Once the incubation period was over the aliquots were centrifuged at 12.000 g for 2 minutes. The resulting plasma was separated and stored at −20° C. for its posterior analysis. In these samples the concentration of leukotriene B4 was determined by enzyme immunoassay (kit EIA; Amersham).

[1] = 10 mg/Kg oral once daily 5 days, 10 mg/kg
[2] = 10 mg/Kg oral once daily 5 days, vs control, 10 mg/kg

Question: For `Oc1c(I)cc(I)cc1I` [Micronized, 2,4,6-triiodophenol], which “degree of LTB4 inhibition compared with the other form” value (10 mg/kg, 5 days oral) is on record?
Answer: superior to that obtained with the non-micronized product

Question: What about the “inhibition of leukotriene B4 formation by 5-lipoxygenase ex-vivo (in words)” value (10 mg/kg, 5 days oral, P<0.05 ANOVA+Dunnett's test) of the same molecule?
Answer: inhibits, in a statistically significant manner

Question: And the “LTB4 (ng/ml), group mean” value (group mean, 6 rats, 10 mg/Kg oral once daily 5 days, 10 mg/kg)?
Answer: 5.492 ng/mL

Question: What about the “LTB4 (ng/ml), individual samples” value [1] of the same molecule?
Answer: 6.549 ng/mL and 5.032 ng/mL and 4.583 ng/mL and 6.118 ng/mL and 4.602 ng/mL and 6.067 ng/mL

Question: What about the “LTB4 % inhib., individual samples” value [2] of the same molecule?
Answer: 20.176% and 38.665% and 44.140% and 25.423% and 43.902% and 26.054%

Question: And the inhibition at 10 mg/kg (rat, po, group mean, 6 rats, 10 mg/Kg oral once daily 5 days, vs control, read-out: LTB4 % inhib., group mean)?
Answer: 33.1%

Question: `Oc1c(I)cc(I)cc1I` [Non-Micronized, 2,4,6-triiodophenol] was tested. Which “LTB4 (ng/ml), group mean” value (group mean, 6 rats, 10 mg/Kg oral once daily 5 days, listed as S. Ref., 10 mg/kg) did it give?
Answer: 6.496 ng/mL

Question: What about the “LTB4 % inhib., group mean” value (group mean, 6 rats, 10 mg/Kg oral once daily 5 days, vs control, listed as S. Ref., 10 mg/kg) of the same molecule?
Answer: 20.818%

Question: What about the “LTB4 (ng/ml), individual samples” value [1] of the same molecule?
Answer: 6.862 ng/ml and 4.355 ng/ml (2×) and 4.905 ng/ml and 8.818 ng/ml and 9.682 ng/ml

Question: What about the “LTB4 % inhib., individual samples” value [2] of the same molecule?
Answer: 16.356% and 46.917% and 40.210% and −7.480% and −18.013%
